This is an account of results in ChEMBL document CHEMBL1144892, “Synthesis and biological activity of various derivatives of a novel class of potent, selective, and orally active prostaglandin D2 receptor antagonists. 2. 6,6-Dimethylbicyclo[3.1.1]heptane derivatives” (J Med Chem, 2003).

A value given as a limit tells only on which side of the number the result lay.

The target in assay [1] is T1, Prostaglandin D2 receptor (Homo sapiens, UniProt Q13258).
T1 sequence (Q13258 whole entry): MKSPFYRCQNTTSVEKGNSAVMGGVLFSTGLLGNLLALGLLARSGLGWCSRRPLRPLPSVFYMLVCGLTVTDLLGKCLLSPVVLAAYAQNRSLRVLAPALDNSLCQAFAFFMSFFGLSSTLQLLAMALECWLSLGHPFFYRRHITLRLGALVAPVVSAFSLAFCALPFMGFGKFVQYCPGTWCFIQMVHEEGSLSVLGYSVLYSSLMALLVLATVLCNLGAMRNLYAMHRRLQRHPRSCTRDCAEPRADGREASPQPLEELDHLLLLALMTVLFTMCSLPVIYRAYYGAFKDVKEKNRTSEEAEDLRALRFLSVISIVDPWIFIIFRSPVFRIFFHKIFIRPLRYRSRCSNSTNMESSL
The experiment in a line: Prostaglandin D2 receptor antagonist activity, evaluated by inhibition of [3H]PGD-2 binding to human platelet membranes.

Assay [2] concerns the target T1, Prostaglandin D2 receptor. In words: Concentration required to inhibit the PGD-2 evoked cAMP formation in human platelets. It counts as functional. (cAMP levels reflect the balance of adenylyl cyclase and phosphodiesterase activity.)
The subject of assay [3] is Cavia porcellus. The experiment in a line: In vivo inhibition of antigen-induced increase in intranasal pressure in actively sensitized guinea pig administered perorally with 10 mg/Kg compound, 10 minutes before the antigen challenge. It counts as functional. To be noted: oral.
The subject of assay [4] is Cavia porcellus. The experiment in a line: In vivo inhibition of antigen-induced increase in intranasal pressure in actively sensitized guinea pig administered intravenously with 1 mg/Kg compound, 10 minutes before the antigen challenge. It counts as functional.

Consider `CC1(C)[C@H]2C[C@H](C/C=C/CCCC(=O)O)[C@@H](NC(=O)c3cc4ccccc4o3)[C@@H]1C2`, for which the IC50 (in general, the concentration that gives 50% inhibition) in assay [1] was 0.69 µM; in assay [2] it was 0.076 µM. On to `CC1(C)[C@H]2C[C@H](C/C=C/CCCC(=O)O)[C@@H](NC(=O)c3csc4cc(O)ccc34)[C@@H]1C2`, for which the figures for the IC50 in assay [1] and in assay [2] were 0.0022 µM and 0.018 µM, respectively. The inhibition in vivo (commonly the change of the read-out against control, counted positive when it falls) at 10 mg/kg with Cavia porcellus [3] was 88%.

In the case of `CC1(C)[C@H]2C[C@H](C/C=C/CCCC(=O)O)[C@@H](NC(=O)Cc3ccccc3)[C@@H]1C2`, the IC50 in assay [1] is above 10 µM; in assay [2], above 1 µM.

`Cc1scc(C(=O)N[C@@H]2[C@@H](C/C=C/CCCC(=O)O)C[C@H]3C[C@@H]2C3(C)C)c1-c1ccccc1`: the IC50 in assay [1] worked out at 0.59 µM; in assay [2], 0.074 µM. The like results for `CC1(C)[C@H]2C[C@H](C/C=C/CCCC(=O)O)[C@@H](NC(=O)c3cc4ccccc4s3)[C@@H]1C2` were, in that order, 0.019 µM and 0.39 µM. On to `Cc1cc(C(=O)N[C@@H]2[C@@H](C/C=C/CCCC(=O)O)C[C@H]3C[C@@H]2C3(C)C)cs1`, for which the IC50 in assay [1] came to 0.013 µM; in assay [2] it was 0.025 µM. Regarding `CC1(C)[C@H]2C[C@H](C/C=C/CCCC(=O)O)[C@@H](NC(=O)c3csc4ccccc34)[C@@H]1C2`, the IC50 in assay [1] worked out at 0.032 µM; in assay [2], 0.022 µM. In addition, the inhibition in vivo at 10 mg/kg in the assay with Cavia porcellus [3] stood at 82%. Turning to `CC1(C)[C@H]2C[C@H](NS(=O)(=O)c3ccc(-c4ccccc4)cc3)[C@@H](C/C=C\CCCC(=O)O)[C@@H]1C2`, the IC50 in assay [1] is 1.3 µM; in assay [2], above 1 µM. Take `CC1(C)[C@H]2C[C@H](C/C=C/CCCC(=O)O)[C@@H](NC(=O)c3ccc[nH]3)[C@@H]1C2`: it took 0.037 µM to reach half-maximal inhibition in assay [2] (IC50). Regarding `CC1(C)[C@H]2C[C@H](NC(=O)c3ccc(-c4ccccc4)cc3)[C@@H](C/C=C\CCCC(=O)O)[C@@H]1C2`, the 50% inhibitory concentration (IC50) in assay [1] was 5.1 µM; in assay [2], above 1 µM. `CC1(C)[C@H]2C[C@H](C/C=C/CCCC(=O)O)[C@@H](NC(=O)c3cccnc3)[C@@H]1C2` had an IC50 in assay [1] of 0.33 µM. In other words, the sub-micromolar range. For `Cn1ccc(C(=O)N[C@@H]2[C@@H](C/C=C/CCCC(=O)O)C[C@H]3C[C@@H]2C3(C)C)c1`, the IC50 was determined as 0.42 µM in assay [1] and 0.11 µM in assay [2]. For `CC1(C)[C@H]2C[C@H](C/C=C/CCCC(=O)O)[C@@H](NC(=O)c3ccc(O)cc3)[C@@H]1C2`, in that order: 3.4 µM and 0.24 µM. As for `CC1(C)[C@H]2C[C@H](C/C=C/CCCC(=O)O)[C@@H](NC(=O)c3ccc([N+](=O)[O-])cc3)[C@@H]1C2`, the IC50 in assay [1] is 4.4 µM; in assay [2], 0.11 µM.

As to `CC1(C)[C@H]2C[C@@H](NC(=O)c3ccc(-c4ccccc4)cc3)[C@H](C/C=C\CCCC(=O)O)[C@@H]1C2`, the IC50 is 3.6 µM in assay [1] and above 1 µM in assay [2]. As for `CC1(C)[C@H]2C[C@H](C/C=C/CCCC(=O)O)[C@@H](NC(=O)c3cccc4ccsc34)[C@@H]1C2`, the IC50 in assay [1] was found to be 0.026 µM; in assay [2] it was 0.0056 µM. Besides, the inhibition in vivo at 10 mg/kg in the assay with Cavia porcellus [3] is 70%. Regarding `COc1cscc1C(=O)N[C@@H]1[C@@H](C/C=C/CCCC(=O)O)C[C@H]2C[C@@H]1C2(C)C`, the values for the IC50 in assay [1] and in assay [2] were 4.5 µM and 0.23 µM, respectively.

Consider `Cc1sccc1C(=O)N[C@@H]1[C@@H](C/C=C/CCCC(=O)O)C[C@H]2C[C@@H]1C2(C)C`, for which the values for the IC50 in assay [1] and in assay [2] were 0.18 µM and 0.02 µM, respectively. For `CC1(C)[C@H]2C[C@H](C/C=C/CCCC(=O)O)[C@@H](NC(=O)Cc3ccoc3)[C@@H]1C2`, in that order: 0.56 µM and 0.017 µM. As to `CC1(C)[C@H]2C[C@H](C/C=C/CCCC(=O)O)[C@@H](NC(=O)c3ccc4ccccc4c3)[C@@H]1C2`, the IC50 in assay [2] worked out at 0.073 µM.

Regarding `CC1(C)[C@H]2C[C@H](C/C=C\CCCC(=O)O)[C@@H](NS(=O)(=O)c3ccc(-c4ccccc4)cc3)[C@@H]1C2`, the values for the IC50 in assay [1] and in assay [2] were 1.2 µM and 0.53 µM, respectively. For `COc1ccccc1C(=O)N[C@@H]1[C@@H](C/C=C/CCCC(=O)O)C[C@H]2C[C@@H]1C2(C)C`, the values for the IC50 in assay [1] and in assay [2] were 4.6 µM and 0.32 µM, respectively.

On to `CC1(C)[C@H]2C[C@H](C/C=C/CCCC(=O)NS(C)(=O)=O)[C@@H](NC(=O)c3ccsc3)[C@@H]1C2`, for which the IC50 in assay [1] is 6 µM; in assay [2], 0.41 µM. For `CC1(C)[C@H]2C[C@H](C/C=C/CCCC(=O)O)[C@@H](NC(=O)c3csc4ccc(NS(C)(=O)=O)cc34)[C@@H]1C2`, in that order: 7.5 µM and 0.03 µM. For the molecule `CC1(C)[C@H]2C[C@H](C/C=C/CCCC(=O)O)[C@@H](NC(=O)c3csc4c3CCCC4)[C@@H]1C2`, the IC50 was 0.15 µM in assay [1] and 0.035 µM in assay [2]. For `CC1(C)[C@H]2C[C@H](C/C=C/CCCC(=O)O)[C@@H](NC(=O)c3csc(-c4ccccc4)c3)[C@@H]1C2`, in that order: 0.042 µM and 0.1 µM.

With `CC1(C)[C@H]2C[C@H](C/C=C/CCCC(=O)O)[C@@H](NC(=O)c3cncs3)[C@@H]1C2`, the IC50 was above 10 µM in assay [1] and 0.5 µM in assay [2]. With `CN(C(=O)c1ccsc1)[C@@H]1[C@@H](C/C=C/CCCC(=O)O)C[C@H]2C[C@@H]1C2(C)C`, the values for the IC50 in assay [1] and in assay [2] were above 10 µM and above 1 µM, respectively. Consider `CC1(C)[C@H]2C[C@H](CC(=O)CCCCC(=O)O)[C@@H](NC(=O)c3ccsc3)[C@@H]1C2`, for which the IC50 was above 10 µM in assay [1] and above 1 µM in assay [2]. The like results for `COc1cc(C(=O)N[C@@H]2[C@@H](C/C=C/CCCC(=O)O)C[C@H]3C[C@@H]2C3(C)C)cs1` were, in that order, 0.52 µM and 0.056 µM.

Consider `CC1(C)[C@H]2C[C@H](C/C=C/CCCC(=O)O)[C@@H](NC(=O)c3c[nH]c4ccccc34)[C@@H]1C2`, for which the IC50 in assay [1] turned out to be 0.52 µM; in assay [2], 0.11 µM. For `CC1(C)[C@H]2C[C@H](C/C=C/CCCc3nnn[nH]3)[C@@H](NC(=O)c3ccsc3)[C@@H]1C2`, the IC50 in assay [2] is 0.093 µM. With `CC1(C)[C@H]2C[C@H](C/C=C\CCCC(=O)O)[C@@H](NC(=O)c3ccc(/N=N/c4ccccc4)cc3)[C@@H]1C2`, the inhibition in vivo at 1 mg/kg with Cavia porcellus [4] is 60%. Regarding `CC1(C)[C@H]2C[C@@H](NS(=O)(=O)c3ccc(-c4ccccc4)cc3)[C@H](C/C=C\CCCC(=O)O)[C@@H]1C2`, the IC50 in assay [1] was 1.3 µM; in assay [2] it was above 1 µM. In the case of `CC1(C)[C@H]2C[C@H](C/C=C/CCCC(=O)O)[C@@H](NC(=O)c3ccc4c(c3)OCO4)[C@@H]1C2`, the IC50 stood at 2.1 µM in assay [1] and 0.17 µM in assay [2]. As to `CC1(C)[C@H]2C[C@H](C/C=C\CCCC(=O)O)[C@@H](NC(=O)c3ccccc3)[C@@H]1C2`, in the assay on Cavia porcellus [4], the inhibition in vivo at 1 mg/kg stood at 52%.

On to `CC1(C)[C@H]2C[C@H](C/C=C/CCCC(=O)O)[C@@H](NC(=O)C3CCCCC3)[C@@H]1C2`, for which the 50% inhibitory concentration (IC50) in assay [1] is above 10 µM; in assay [2] it was above 1 µM. The like results for `COc1ccc(C(=O)N[C@@H]2[C@@H](C/C=C/CCCC(=O)O)C[C@H]3C[C@@H]2C3(C)C)cc1` were, in that order, 3.9 µM and 0.19 µM. The like results for `CN(C(=O)c1ccccc1)[C@@H]1[C@@H](C/C=C/CCCC(=O)O)C[C@H]2C[C@@H]1C2(C)C` were, in that order, above 10 µM and above 1 µM.
